Laboratory results reported in patent US20160287589A1, “SUBSTITUTED-IMIDAZOPYRIDAZINES” (BAYER PHARMA AKTIENGESELLSCHAFT, priority 2013, published 2016).

Assays:
MKNK1 [1] = target: T1, MKNK1 (Homo sapiens, UniProt Q9BUB5, T385D); assay: MKNK1 kinase assay (MKNK1 TR-FRET assay); format: biochemical; details: 10 μM ATP, 15 min preincubation
T1 construct: GST (N); purchased Carna Biosciences 02-145; host or cells: insect cells (baculovirus expression system)

MKNK1 [2] = target: T1, MKNK1; assay: MKNK1 kinase high ATP assay (TR-FRET-based); format: biochemical; details: 2 mM ATP, 15 min preincubation
In short: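 GST-tagged full-length human MKNK1 (aa 1-424, T344D) from insect cells, preincubated with compound 15 min at 22 °C. Reaction 30 min at 22 °C with 2 mM ATP and 0.06 μM biotinylated peptide in HEPES pH 7.5, Mg2+, DTT. Phosphopeptide detected by TR-FRET (665/622 ratio) with anti-pS6 (pSer236) antibody; normalised to no-inhibitor and no-enzyme controls.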

T1 sequence (Q9BUB5 1-424 isoform Q9BUB5-2 T344D): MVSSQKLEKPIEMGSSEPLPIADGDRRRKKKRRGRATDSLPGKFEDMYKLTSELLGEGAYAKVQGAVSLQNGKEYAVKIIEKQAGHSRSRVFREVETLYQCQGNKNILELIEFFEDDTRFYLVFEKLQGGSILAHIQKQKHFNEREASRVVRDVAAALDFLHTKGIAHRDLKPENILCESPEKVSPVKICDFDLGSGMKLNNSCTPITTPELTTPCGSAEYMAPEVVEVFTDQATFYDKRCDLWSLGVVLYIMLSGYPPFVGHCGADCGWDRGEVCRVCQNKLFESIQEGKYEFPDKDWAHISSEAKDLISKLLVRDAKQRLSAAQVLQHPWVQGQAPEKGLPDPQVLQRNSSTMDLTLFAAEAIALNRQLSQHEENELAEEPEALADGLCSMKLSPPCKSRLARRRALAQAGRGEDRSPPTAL

Compound	IC50 (MKNK1 [1]; Table 1c)	IC50 (MKNK1 [2]; Table 2c)	IC50 (MKNK1 [1]; Table 1d)	IC50 (MKNK1 [2]; Table 2d)
COc1ccc2ncc(-c3cc4c(N5CCN[C@H](C)C5)nccc4o3)n2n1 [III-144, 6-methoxy-3-{4-[(3R)-3-methylpiperazin-1-yl]furo[3,2-c]pyridin-2-yl}imidazo[1,2-b]pyridazine]	4.6 nM	6.7 nM	–	–
C[C@H]1CN(c2nccc3oc(-c4cnc5ccc(OCC(F)(F)F)nn45)cc23)CCN1 [III-145, 3-{4-[(3S)-3-methylpiperazin-1-yl]furo[3,2-c]pyridin-2-yl}-6-(2,2,2-trifluoroethox-y)imidazo[1,2-b]pyridazine]	9.7 nM	24 nM	–	–
COc1ccc2ncc(-c3cc4c(N5CCOC(C)(C)C5)nccc4o3)n2n1 [III-146, 3-[4-(2,2-dimethylmorpholin-4-yl)furo[3,2-c]pyridin-2-yl]-6-methoxy-imidazo[1,2-b]pyridazine]	27 nM	8.7 nM	–	–
CC(=O)N1CCC[C@H]1CCOc1ccc2ncc(-c3cc4cnccc4o3)n2n1 [IV-1, 1-[(2S)-2-(2-{[3-(Furo[3,2-c]pyridin-2-yl)imidazo[1,2-b]pyridazin-6-yl]oxy}ethyl)pyrrolidin-1-yl]ethanone]	–	–	5 nM	12 nM
COc1nccc2oc(-c3cnc4ccc(OCCC5CCC(=O)N5)nn34)cc12 (centres unmarked) [IV-2, 5-(2-{[3-(4-Methoxyfuro[3,2-c]pyridin-2-yl)imidazo[1,2-b]pyridazin-6-yl]oxy}-ethyl)pyrrolidin-2-one]	–	–	11 nM	26 nM
COc1nccc2oc(-c3cnc4ccc(OC[C@@H]5CCC(=O)N5)nn34)cc12 [IV-3, (5S)-5-({[3-(4-Methoxyfuro[3,2-c]pyridin-2-yl)imidazo[1,2-b]pyridazin-6-yl]-oxy}methyl)pyrrolidin-2-one]	–	–	10 nM	28 nM
CC(C)Oc1nccc2oc(-c3cnc4ccc(OC[C@H]5CCC(=O)N5)nn34)cc12 [IV-4, (5R)-5-[({3-[4-(Propan-2-yloxy)furo[3,2-c]pyridin-2-yl]imidazo[1,2-b]pyridazin-6-yl}oxy)methyl]pyrrolidin-2-one]	–	–	2 nM	4 nM
CC(C)(C)COc1nccc2oc(-c3cnc4ccc(OC[C@H]5CCC(=O)N5)nn34)cc12 [IV-5, (5R)-5-[({3-[4-(2,2-Dimethylpropoxy)furo[3,2-c]pyridin-2-yl]imidazo[1,2-b]-pyridazin-6-yl}oxy)methyl]pyrrolidin-2-one]	–	–	2 nM	4 nM
COc1nccc2oc(-c3cnc4ccc(OC[C@H]5CCC(=O)N5)nn34)cc12 [IV-6, (5R)-5-({[3-(4-Methoxyfuro[3,2-c]pyridin-2-yl)imidazo[1,2-b]pyridazin-6-yl]-oxy}methyl)pyrrolidin-2-one]	–	–	4 nM	8 nM
CC(C)(C)C(=O)N1CCC[C@H]1CCOc1ccc2ncc(-c3cc4cnccc4o3)n2n1 [IV-7, 1-[(2S)-2-(2-{[3-(Furo[3,2-c]pyridin-2-yl)imidazo[1,2-b]pyridazin-6-yl]-oxy}ethyl)pyrrolidin-1-yl]-2,2-dimethylpropan-1-one]	–	–	1 nM	4 nM
COc1nccc2oc(-c3cnc4ccc(OC[C@H]5CN(C(=O)C6CC6)CCO5)nn34)cc12 [IV-8, Cyclopropyl[(2R)-2-({[3-(4-methoxyfuro[3,2-c]pyridin-2-yl)imidazo[1,2-b]-pyridazin-6-yl]oxy}methyl)morpholin-4-yl]methanone]	–	–	4 nM	10 nM
COc1nccc2oc(-c3cnc4ccc(OCC5CCCC(=O)N5)nn34)cc12 (centres unmarked) [IV-9, 6-({[3-(4-Methoxyfuro[3,2-c]pyridin-2-yl)imidazo[1,2-b]pyridazin-6-yl]oxy}-methyl)piperidin-2-one]	–	–	3 nM	9 nM
COc1nccc2oc(-c3cnc4ccc(OC[C@H]5CN(C(=O)C(F)(F)F)CCO5)nn34)cc12 [IV-10, 2,2,2-Trifluoro-1-[(2R)-2-({[3-(4-methoxyfuro[3,2-c]pyridin-2-yl)imidazo-[1,2-b]pyridazin-6-yl]oxy}methyl)morpholin-4-yl]ethanone]	–	–	7 nM	17 nM
COc1nccc2oc(-c3cnc4ccc(OC[C@H]5CN(C(=O)C(C)(C)C)CCO5)nn34)cc12 [IV-11, 1-[(2R)-2-({[3-(4-Methoxyfuro[3,2-c]pyridin-2-yl)imidazo[1,2-b]pyridazin-6-yl]oxy}-methyl)morpholin-4-yl]-2,2-dimethylpropan-1-one]	–	–	6 nM	25 nM
CC(C)Oc1nccc2oc(-c3cnc4ccc(OC[C@H]5CNCC(=O)N5)nn34)cc12 [IV-13, (6R)-6-[({3-[4-(Propan-2-yloxy)furo[3,2-c]pyridin-2-yl]imidazo[1,2-b]pyridazin-6-yl}oxy)methyl]piperazin-2-one]	–	–	22 nM	43 nM
CCNc1nccc2oc(-c3cnc4ccc(OC[C@H]5CCC(=O)N5)nn34)cc12 [IV-14, (5R)-5-[({3-[4-(Ethylamino)furo[3,2-c]pyridin-2-yl]imidazo[1,2-b]pyridazin-6-yl}oxy)methyl]pyrrolidin-2-one]	–	–	1 nM	2 nM
